Source: patent publication EP2108650A1, “Novel aureothin derivatives” (Leibniz-Institut für Naturstoff-Forschung und …, priority 2008, dated 2009)
Like-named read-outs stand apart in the source and are kept apart here.

What was measured:
[1] = system: human K-562 leukemia cells; experiment: Antiproliferative assay on K-562 cells (CellTiter-Blue viability readout); type: cell-based; conditions: for IC50: Homo sapiens; for increase of antiproliferative activity compared to aureothin: ratio of IC50 versus aureothin
Method: Cells were grown in the appropiate cell culture medium supplemented with 10 mL L^-1 ultraglutamine 1 (Cambrex 17-605E/U1), 500 µL L^-1 gentamicin sulfate (CAMBREX 17-518Z), and 10% heat inactivated fetal bovine serum (PAA A15-144) at 37°C in high density polyethylene flasks (NUNC 156340).
The test substances are dissolved in DMSO before being diluted in DMEM. […] were harvested at the logarithmic growth phase after soft trypsinization, using 0.25% trypsin in PBS containing 0.02% EDTA (Biochrom KG L2163). For each experiment approximately 10,000 cells were seeded with 0.1 mL culture medium per well of the 96-well microplates (NUNC 167008).
The cells were incubated with dilutions of the test substances for 72 hours at 37°C in a humidified atmosphere and 5% CO2.
For estimating the influence of chemical compounds on cell proliferation of K-562 we determinate the numbers of viable cells present in multiwell plates via CellTiter-Blue® assay. It uses the indicator dye resazurin to measure the metabolic capacity of cells as indicator of cell viability. Viable cells of untreated control retain the ability to reduce resazurin into resorufin, which is highly fluorescent. […] Under our experimental conditions, the signal from the CellTiter-Blue® reagent is proportional to the number of viable cells.
The GI50 and CC50 values were defined as being where the concentration-response curve intersected the 50% line, compared to untreated control. These comparisons of the different values were performed with software Magellan (TECAN).
A repeat determination has been conducted in all cases.

[2] = system: fungal strains like Candida albicans, Sporobolomyces salmonicolor, Penicillium notatum, Glomerella or several Aspergillus spp.; experiment: Antimicrobial / antifungal activity testing; type: cell-based; conditions: qualitative; compared with the other antimicrobial activities or with aureothin
[3] = K562, DOA derivatives, K-562 cells, 72 h incubation (assay inferred; table has no title), read-out: IC50

| SMILES | IC50 ([1]; K562, 72 h) | IC50 [1, 3] | IC50 ([1]; K562, read-out: IC50 antiproliferative activity against K-562 cells) | increase of antiproliferative activity compared to aureothin ([1]; K-562 cells) | effect against fungal strains [2] |
| --- | --- | --- | --- | --- | --- |
| COc1oc(CC/C(C)=C/C(C)=C/c2ccc([N+](=O)[O-])cc2)c(C)c(=O)c1C [Deoxyaureothin, deoxyaureothin, reference compound] | – | – | 5000 nM | 5 fold | – |
| COc1oc(CC/C(C)=C/C(C)=C/c2ccc(Cl)cc2)c(C)c(=O)c1C [R = Ar-Cl, p-chloro-DOA] | 2000 nM | 0.8 µg/mL | – | – | – |
| COc1oc(CC/C(C)=C/C(C)=C/c2ccc3ccccc3c2)c(C)c(=O)c1C [R = Ar-Ph, 2-naphthoate-DOA] | 21000 nM | 8 µg/mL | – | – | – |

More lines, in order of falling IC50 ([1]; K562, 72 h), values ahead:

| IC50 ([1]; K562, 72 h) | IC50 [1, 3] | SMILES | IC50 ([1]; K562, read-out: IC50 antiproliferative activity against K-562 cells) | increase of antiproliferative activity compared to aureothin ([1]; K-562 cells) | effect against fungal strains [2] |
| --- | --- | --- | --- | --- | --- |
| 1000 nM | 0.5 µg/mL | COc1oc(CC/C(C)=C/C(C)=C/c2ccc(Br)cc2)c(C)c(=O)c1C [R = Ar-Br, p-bromo-DOA] | – | – | – |
| 1000 nM | 0.5 µg/mL | COc1oc(CC/C(C)=C/C(C)=C/c2ccc(C#N)cc2)c(C)c(=O)c1C [R = Ar-CN, deoxyaureonitrile] | – | up to 25 fold | activities comparable to aureothin |
| 1000 nM | 0.5 µg/mL | COc1oc(CC/C(C)=C/C(C)=C/c2ccc(F)cc2)c(C)c(=O)c1C [R = Ar-F, p-fluoro-DOA] | – | – | – |
| 1000 nM | 0.5 µg/mL | COc1oc(CC/C(C)=C/C(C)=C/c2ccc(I)cc2)c(C)c(=O)c1C [R = Ar-I, p-iodo-DOA] | – | – | – |
